#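 48-hour exposure; five concentrations; linearly interpolated endpoints. TGI marks complete inhibition of growth.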
# Test system: ACHN renal
# Assay: NCI anticancer screen, dose series, 48 h
row,Compound,TGI
1,CC(=O)Nc1cc(C(=O)Nc2cc(C(=O)N3CC(CCl)c4c3cc(N)c3ccccc43)nn2C)nn1C (stereo not given),0.0892 µM
2,NC(Cc1cccc([N+](=O)[O-])c1)C(=O)O (stereo not given),> 100 µM
3,CCCCCN=Cc1c(O)c(O)c(C(C)C)c2cc(C)c(-c3c(C)cc4c(C(C)C)c(O)c(O)c(C=NCCCCC)c4c3O)c(O)c12,31.3 µM
4,O=C(O)/C=N\Nc1nc2ccccc2[nH]1,> 100 µM
5,CC(=O)OCCn1cnc2nc(Nc3ccccc3)nc(Cl)c21,> 100 µM
6,O=C1OC[C@@H]2Cc3cc4c(cc3[C@H](c3ccc5c(c3)OCO5)[C@@H]12)OCO4,> 25 µM
7,N#C/C(C(=O)Nc1ccccc1)=C(/N)N1CCOCC1,> 100 µM
8,O/N=C1/COC(C(F)(F)F)(C(F)(F)F)C1,> 100 µM
9,CNn1c(-c2ccccc2)n[nH]c1=O,> 100 µM
10,CS(=O)(=O)Nc1ccc(N2Cc3cnc4ccc5[nH]ccc2c5c34)cc1,> 100 µM
11,CC(C)(C)OC(=O)NCC(O)CNC(=O)OC(C)(C)C,> 100 µM
12,CCc1nc(N)nc(N)c1-c1ccc(Cl)c(Cl)c1,> 100 µM
13,NS(=O)(=O)c1nn2c(Br)c(-c3ccccc3)nc2s1,15.2 µM
14,CC1=C(C#N)C(C#N)(C#N)C(NN(C)C)C1 (stereo not given),34.6 µM
15,COc1nc(C(=O)NNC(=O)c2nc(OC)c3ccccc3c2-c2ccccc2)c(-c2ccccc2)c2ccccc12,> 100 µM
16,CCOC(=O)C1=C(C)N(C)C23OC4(C(=O)OC)CC2c2ccccc2C1N3C4=O (stereo not given),> 100 µM
17,CC(=O)OCc1cc(CCC(=O)NCCNc2c3ccccc3nc3ccccc23)cc(COC(C)=O)c1O[Si](C)(C)C(C)(C)C,30.6 µM
18,CC(=O)NC1C(OCc2ccccc2)OC(CO)C(O)C1OC(C)C(=O)NC(C)C(=O)NC(CCC(=O)NCCCNc1c2ccccc2nc2cccc([N+](=O)[O-])c12)C(N)=O (stereo not given),6.9 µM
19,Cc1ccc(/C=N/n2c(=O)[nH]c3ccccc3c2=O)cc1,> 100 µM
20,Cc1nc2ccccc2c(=O)n1NC(=O)c1ccc(CS)cc1,27 µM
21,c1ccc2sc(C3(N4CCCC4)CCCCCC3)cc2c1,60.7 µM

# Test system: EKVX NSCLC
# Assay: NCI anticancer screen, dose series, 48 h
row,Compound,TGI
1,CC(=O)Nc1cc(C(=O)Nc2cc(C(=O)N3CC(CCl)c4c3cc(N)c3ccccc43)nn2C)nn1C (stereo not given),1.15 µM
2,NC(Cc1cccc([N+](=O)[O-])c1)C(=O)O (stereo not given),> 100 µM
3,CCCCCN=Cc1c(O)c(O)c(C(C)C)c2cc(C)c(-c3c(C)cc4c(C(C)C)c(O)c(O)c(C=NCCCCC)c4c3O)c(O)c12,> 100 µM
4,O=C(O)/C=N\Nc1nc2ccccc2[nH]1,> 100 µM
5,Clc1c(Cl)c(Cl)c2nn(C3CCCO3)nc2c1Cl (stereo not given),> 100 µM
6,CC(=O)OCCn1cnc2nc(Nc3ccccc3)nc(Cl)c21,> 100 µM
7,O=C1OC[C@@H]2Cc3cc4c(cc3[C@H](c3ccc5c(c3)OCO5)[C@@H]12)OCO4,> 25 µM
8,N#C/C(C(=O)Nc1ccccc1)=C(/N)N1CCOCC1,> 100 µM
9,O/N=C1/COC(C(F)(F)F)(C(F)(F)F)C1,> 100 µM
10,CNn1c(-c2ccccc2)n[nH]c1=O,> 100 µM
11,CS(=O)(=O)Nc1ccc(N2Cc3cnc4ccc5[nH]ccc2c5c34)cc1,> 100 µM
12,CC(C)(C)OC(=O)NCC(O)CNC(=O)OC(C)(C)C,> 100 µM
13,CCc1nc(N)nc(N)c1-c1ccc(Cl)c(Cl)c1,> 100 µM
14,NS(=O)(=O)c1nn2c(Br)c(-c3ccccc3)nc2s1,31.9 µM
15,CC1=C(C#N)C(C#N)(C#N)C(NN(C)C)C1 (stereo not given),86.3 µM
16,COc1nc(C(=O)NNC(=O)c2nc(OC)c3ccccc3c2-c2ccccc2)c(-c2ccccc2)c2ccccc12,> 100 µM
17,CCOC(=O)C1=C(C)N(C)C23OC4(C(=O)OC)CC2c2ccccc2C1N3C4=O (stereo not given),> 100 µM
18,CC(=O)OCc1cc(CCC(=O)NCCNc2c3ccccc3nc3ccccc23)cc(COC(C)=O)c1O[Si](C)(C)C(C)(C)C,36.1 µM
19,CC(=O)NC1C(OCc2ccccc2)OC(CO)C(O)C1OC(C)C(=O)NC(C)C(=O)NC(CCC(=O)NCCCNc1c2ccccc2nc2cccc([N+](=O)[O-])c12)C(N)=O (stereo not given),22.6 µM
20,Cc1ccc(/C=N/n2c(=O)[nH]c3ccccc3c2=O)cc1,> 100 µM
21,Cc1nc2ccccc2c(=O)n1NC(=O)c1ccc(CS)cc1,66.2 µM
22,c1ccc2sc(C3(N4CCCC4)CCCCCC3)cc2c1,33 µM

# Test system: HOP-92 NSCLC
# Assay: NCI anticancer screen, dose series, 48 h
row,Compound,TGI
1,CC(=O)Nc1cc(C(=O)Nc2cc(C(=O)N3CC(CCl)c4c3cc(N)c3ccccc43)nn2C)nn1C (stereo not given),0.1 µM
2,NC(Cc1cccc([N+](=O)[O-])c1)C(=O)O (stereo not given),> 100 µM
3,CCCCCN=Cc1c(O)c(O)c(C(C)C)c2cc(C)c(-c3c(C)cc4c(C(C)C)c(O)c(O)c(C=NCCCCC)c4c3O)c(O)c12,14.6 µM
4,O=C(O)/C=N\Nc1nc2ccccc2[nH]1,> 100 µM
5,CC(=O)OCCn1cnc2nc(Nc3ccccc3)nc(Cl)c21,34.4 µM
6,N#C/C(C(=O)Nc1ccccc1)=C(/N)N1CCOCC1,> 100 µM
7,O/N=C1/COC(C(F)(F)F)(C(F)(F)F)C1,> 100 µM
8,CNn1c(-c2ccccc2)n[nH]c1=O,> 100 µM
9,CS(=O)(=O)Nc1ccc(N2Cc3cnc4ccc5[nH]ccc2c5c34)cc1,63.6 µM
10,CC(C)(C)OC(=O)NCC(O)CNC(=O)OC(C)(C)C,> 100 µM
11,CCc1nc(N)nc(N)c1-c1ccc(Cl)c(Cl)c1,> 100 µM
12,NS(=O)(=O)c1nn2c(Br)c(-c3ccccc3)nc2s1,22.4 µM
13,CC1=C(C#N)C(C#N)(C#N)C(NN(C)C)C1 (stereo not given),30.8 µM
14,CCOC(=O)C1=C(C)N(C)C23OC4(C(=O)OC)CC2c2ccccc2C1N3C4=O (stereo not given),> 100 µM
15,CC(=O)OCc1cc(CCC(=O)NCCNc2c3ccccc3nc3ccccc23)cc(COC(C)=O)c1O[Si](C)(C)C(C)(C)C,22.7 µM
16,CC(=O)NC1C(OCc2ccccc2)OC(CO)C(O)C1OC(C)C(=O)NC(C)C(=O)NC(CCC(=O)NCCCNc1c2ccccc2nc2cccc([N+](=O)[O-])c12)C(N)=O (stereo not given),5.8 µM
17,Cc1ccc(/C=N/n2c(=O)[nH]c3ccccc3c2=O)cc1,> 100 µM
18,Cc1nc2ccccc2c(=O)n1NC(=O)c1ccc(CS)cc1,40.8 µM
19,c1ccc2sc(C3(N4CCCC4)CCCCCC3)cc2c1,30 µM

# Test system: M14 melanoma
# Assay: NCI anticancer screen, dose series, 48 h
row,Compound,TGI
1,CC(=O)Nc1cc(C(=O)Nc2cc(C(=O)N3CC(CCl)c4c3cc(N)c3ccccc43)nn2C)nn1C (stereo not given),2.07 µM
2,NC(Cc1cccc([N+](=O)[O-])c1)C(=O)O (stereo not given),> 100 µM
3,CCCCCN=Cc1c(O)c(O)c(C(C)C)c2cc(C)c(-c3c(C)cc4c(C(C)C)c(O)c(O)c(C=NCCCCC)c4c3O)c(O)c12,> 100 µM
4,O=C(O)/C=N\Nc1nc2ccccc2[nH]1,> 100 µM
5,Clc1c(Cl)c(Cl)c2nn(C3CCCO3)nc2c1Cl (stereo not given),> 100 µM
6,O=C1OC[C@@H]2Cc3cc4c(cc3[C@H](c3ccc5c(c3)OCO5)[C@@H]12)OCO4,> 25 µM
7,N#C/C(C(=O)Nc1ccccc1)=C(/N)N1CCOCC1,> 100 µM
8,O/N=C1/COC(C(F)(F)F)(C(F)(F)F)C1,> 100 µM
9,CNn1c(-c2ccccc2)n[nH]c1=O,> 100 µM
10,CS(=O)(=O)Nc1ccc(N2Cc3cnc4ccc5[nH]ccc2c5c34)cc1,32.2 µM
11,CC(C)(C)OC(=O)NCC(O)CNC(=O)OC(C)(C)C,> 100 µM
12,CCc1nc(N)nc(N)c1-c1ccc(Cl)c(Cl)c1,> 100 µM
13,NS(=O)(=O)c1nn2c(Br)c(-c3ccccc3)nc2s1,13.8 µM
14,CC1=C(C#N)C(C#N)(C#N)C(NN(C)C)C1 (stereo not given),> 100 µM
15,COc1nc(C(=O)NNC(=O)c2nc(OC)c3ccccc3c2-c2ccccc2)c(-c2ccccc2)c2ccccc12,> 100 µM
16,CCOC(=O)C1=C(C)N(C)C23OC4(C(=O)OC)CC2c2ccccc2C1N3C4=O (stereo not given),> 100 µM
17,CC(=O)OCc1cc(CCC(=O)NCCNc2c3ccccc3nc3ccccc23)cc(COC(C)=O)c1O[Si](C)(C)C(C)(C)C,23.2 µM
18,CC(=O)NC1C(OCc2ccccc2)OC(CO)C(O)C1OC(C)C(=O)NC(C)C(=O)NC(CCC(=O)NCCCNc1c2ccccc2nc2cccc([N+](=O)[O-])c12)C(N)=O (stereo not given),3.97 µM
19,Cc1ccc(/C=N/n2c(=O)[nH]c3ccccc3c2=O)cc1,> 100 µM
20,Cc1nc2ccccc2c(=O)n1NC(=O)c1ccc(CS)cc1,34.2 µM
21,c1ccc2sc(C3(N4CCCC4)CCCCCC3)cc2c1,31 µM

# Test system: MALME-3M melanoma
# Assay: NCI anticancer screen, dose series, 48 h
row,Compound,TGI
1,CC(=O)Nc1cc(C(=O)Nc2cc(C(=O)N3CC(CCl)c4c3cc(N)c3ccccc43)nn2C)nn1C (stereo not given),0.267 µM
2,NC(Cc1cccc([N+](=O)[O-])c1)C(=O)O (stereo not given),> 100 µM
3,CCCCCN=Cc1c(O)c(O)c(C(C)C)c2cc(C)c(-c3c(C)cc4c(C(C)C)c(O)c(O)c(C=NCCCCC)c4c3O)c(O)c12,33.1 µM
4,O=C(O)/C=N\Nc1nc2ccccc2[nH]1,> 100 µM
5,Clc1c(Cl)c(Cl)c2nn(C3CCCO3)nc2c1Cl (stereo not given),> 100 µM
6,CC(=O)OCCn1cnc2nc(Nc3ccccc3)nc(Cl)c21,> 100 µM
7,O=C1OC[C@@H]2Cc3cc4c(cc3[C@H](c3ccc5c(c3)OCO5)[C@@H]12)OCO4,> 25 µM

# Source: PubChem BioAssay (NCI)
